Experimental findings from patent US9359418B2, “Inhibitors of the T cell-specific alternative p38 activation pathway and methods of use” (The United States of America, as represented by the …, priority 2012, dated 2016) are described below.

One data set deals with CD4+ T cells. In words: Cellular uptake of FITC conjugated peptides by purified CD4+ T cells. Type of data set: cell-based. To be noted: FITC conjugated peptide, 2 hours at 37° C., flow cytometry. The protocol:
FIG. 1 is a graph showing cellular uptake of (11R)-71-85 and (11R)-Ctrl. Purified CD4^+ T cells were treated with either FITC conjugated (11R)-71-85 or (11R)-Ctrl, or left untreated for 2 hours at 37° C. After incubation, cells were washed and analyzed by flow cytometry for FITC positivity.
To generate a cell-permeable form of the Gadd45α 71-85 peptide, 11 arginine residues were added to the N-terminus to produce a fusion protein referred to herein as (11R)-71-85. Cell-permeability of (11R)-71-85 was tested using purified CD4^+ T cells. (11R)-71-85 and a control peptide fused to 11 arginine residues (referred to as (11R)-Ctrl) were FITC conjugated. Purified CD4^+ T cells were treated with either FITC conjugated (11R)-71-85 or (11R)-Ctrl, or left untreated for 2 hours at 37° C. After incubation, cells were washed and analyzed by flow cytometry for FITC positivity.
A general note: In flow cytometry, cells or beads pass a laser one at a time.

The next data set relates to T cells. In words: T cell proliferation after anti-CD3 and anti-CD28 stimulation. To be noted: 0.2, 0.5, 1.0, 2.0 or 4.0 μg; anti-CD3 and anti-CD28 for 2 days. It is filed as cell-based. The protocol: FIG. 3 is a graph showing T cell proliferation in response to (11R)-71-85. T cells were purified from spleen and treated with different concentrations of (11R)-71-85 or control peptide (11R)-Ctrl. Cells were then washed and stimulated with anti-CD3 and anti-CD28 for 2 days and finally pulsed with 1 μCi [^3H]-thymidine 14 hours before harvesting. [^3H]-thymidine uptake was determined with a Wallac 1450 MicroBeta Liquid Scintillation Counter.
The ability of (11R)-71-85 to inhibit T cell proliferation and inflammatory cytokine production was also evaluated. T cells were purified from spleen and treated with different concentrations (0.2, 0.5, 1.0, 2.0 or 4.0 μg) of (11R)-71-85 or the control peptide (11R)-Ctrl. Cells were then washed and stimulated with anti-CD3 and anti-CD28 for 2 days and finally pulsed with 1 μCi [^3H]-thymidine 14 hours before harvesting. [^3H]-thymidine uptake was determined with a Wallac 1450 MicroBeta Liquid Scintillation Counter.

The subject of the next data set is PANC02 tumors. In words: PANC02 pancreatic tumor model, tumor growth after intra-tumor injection. To be noted: relative to control animals. Type of data set: in vivo, mice. The protocol:
FIGS. 9A-9C show injection of (11R)-71-85 stops the growth of established PANC02 tumors. WT C57BL/6 mice were injected with 7.5×10^5 PANC02 cells. After 16 days, mice received intra-tumor injections of (11R)-71-85 at the indicated amount or DMSO every other day. (FIG. 9A) Tumor volume from the start of injection (day 16) to day 42 in control mice and mice injected with 40 μg or 80 μg of (11R)-71-85. Sacrifice (sac.) of mice before day 42 is indicated. (FIG. 9B) weight and (FIG. 9C) appearance of the control (left) and treated (right) tumors on day 38.
The p38 MAPK has been implicated in the growth of some tumors that cause local inflammatory responses, such as pancreatic cancer. Therefore, (11R)-71-85 was tested in a pancreatic tumor model. WT C57BL/6 mice were injected with 7.5×10^5 PANC02 cells. After 16 days, mice received intra-tumor injections of 40 μg or 80 μg (11R)-71-85 or DMSO every other day. Tumor volume from the start of injection (day 16) to day 42 in control mice and mice injected with (11R)-71-85 or DMSO was determined (FIG. 9A). Weight (FIG. 9B) and appearance (FIG. 9C) of the control and treated tumors were assessed on day 38.

Data set [1] deals with tumor-infiltrating T cells. In words: PANC02 model, cytokine expression of tumor infiltrating cells. It is filed as in vivo, mice. As to conditions: 80 μg intra-tumor every other day for 1 week. As for the experimental part:
WT C57BL/6 mice were injected with 7.5×10^5 PANC02 cells. After 16 days, mice were injected with 80 μg of either (11R)-71-85 or (11R)-Scrambled (Scr) every other day for 1 week. Twenty-four hours after the last intra-tumor injection, tumor infiltrating cells were harvested and restimulated with PMA and ionomycin, or left unstimulated, in the presence of Golgi inhibitor for 4 hours. Expression of cytokines (IL-17A and TNFα—FIG. 10A; IL-10 and IFNγ—FIG. 10B) was determined by flow cytometry.
The effect of intra-tumor injection of (11R)-71-85 on cytokine secretion from tumor-infiltrating T cells was also evaluated in mice with pancreatic tumors. WT C57BL/6 mice were injected with 7.5×10^5 PANC02 cells and 16 days later mice received intra-tumor injections of 80 μg of (11R)-71-85 or (11R)-Scrambled every other day for 1 week. Twenty-four hours following the last injection, tumor infiltrating cells were harvested and restimulated with PMA and ionomycin, or left unstimulated, in the presence of Golgi inhibitor for 4 hours. Expression of TNF-α, IFNγ, IL-10 and IL-17 was determined by flow cytometry. […] There was no difference in TNF-α secretion after restimulation, which bypasses TCR signaling and activates the classical MAPK cascade. There was no difference between unstimulated and restimulated cells for the other cytokines tested (IFNγ, IL-10, and IL-17; FIGS. 10A-10B).

For data set [2], the system named is tumor-infiltrating T cells. In words: KPC mice, intracellular TNF-α of tumor infiltrating cells after intraperitoneal injection. As to conditions: 80 μg intraperitoneal every other day for 1 month. It is filed as in vivo. As for the experimental part:
FIG. 12 is a panel of flow cytometry plots showing that intraperitoneal injection of (11R)-71-85 inhibits TNF-α secretion from tumor-infiltrating T cells from KPC mice. KPC mice are genetically engineered to develop pancreatic cancer because of oncogene expression and p53 haploinsufficiency. KPC mice received intraperitoneal injections of 80 μg of either (11R)-71-85 or (11R)-Scrambled every other day for 1 month. Twenty-four hours after the last injection, tumor infiltrating cells were harvested and restimulated with PMA and ionomycin, or left unstimulated, in the presence of Golgi inhibitor for 4 hours. Expression of intracellular TNF-α was determined by flow cytometry.
A second murine model of pancreatic cancer was used to evaluate the effect of (11R)-71-85 on cytokine secretion by tumor cells. KPC mice are genetically engineered to develop pancreatic cancer because of oncogene expression and p53 haploinsufficiency. KPC mice were administered 80 μg of either (11R)-71-85 or (11R)-Scrambled by intraperitoneal injection every other day for 1 month. Twenty-four hours after the last injection, tumor infiltrating cells were harvested and restimulated with PMA and ionomycin, or left unstimulated, in the presence of Golgi inhibitor for 4 hours. Expression of intracellular TNF-α was determined by flow cytometry (FIG. 12).

For the substance “(11R)-71-85: fusion protein: 11 arginine residues added to the N-terminus of the Gadd45α 71-85 peptide (LQIHFTLIQAFCCEN; N-terminal 11 arginine; UniProt P24522 71-85, looked up, fragment)”, the “cellular uptake (FITC positivity)” value with CD4+ T cells is on record as “taken up by the T cells”. The “T cell proliferation ([3H]-thymidine uptake) in response to TCR stimulation” value in the data set with T cells is “dose-dependent decrease”. In the data set on PANC02 tumors (40 μg or 80 μg intra-tumor every other day from day 16 to day 42), the tumor volume entry was “significantly decreased”. Also, the tumor weight result with PANC02 tumors (intra-tumor injection every other day, day 38) is “significantly decreased”. Besides, in data set [1] (unstimulated and restimulated cells), the “expression of the other cytokines tested (IFNγ, IL-10, and IL-17)” value is listed as “no difference”. Further, in data set [1] (versus (11R)-Scrambled), the “TNF-α secretion after restimulation with PMA and ionomycin” value is “no difference”; the “TNF-α secretion, unstimulated tumor infiltrating cells” value is “reduced”. The “TNF-α secretion by tumor-infiltrating T cells” value in data set [2] is listed as “inhibits”.
